Values quoted from earlier work in US20240000802A1, “DIFLUPREDNATE FOR REDUCING THE ADVERSE EFFECTS OF OCULAR INFLAMMATION” (SUN PHARMA ADVANCED RESEARCH COMPANY LIMITED, priority 2020, published 2024).

CCCC(=O)O[C@]1(C(=O)COC(C)=O)CC[C@H]2[C@@H]3C[C@H](F)C4=CC(=O)C=C[C@]4(C)[C@@]3(F)[C@@H](O)C[C@@]21C [Difluprednate]
solubility in aqueous vehicle: practically insoluble
